Holding throughout (type): functional
One assay deals with Streptococcus pyogenes. Kind of assay: Antibacterial activity against Streptococcus pyogenes AP1 after 1 hr by bactericidal assay.
The next assay relates to Escherichia coli. The assay is described as follows: Antibacterial activity against Escherichia coli 37.4 after 1 hr by bactericidal assay.
The test system of assay [1] is Lipid bilayer. Kind of assay: Induction of negatively charged DOPE/DOPG liposome disruption assessed as percent leakage after <1000 sec by spectrometry.
Assay [2] concerns Lipid bilayer. Kind of assay: Induction of negatively charged DOPE/DOPG liposome disruption by spectrometry in presence of 150 mM sodium chloride.

Converted amounts (≈) assume the structure as drawn. The source made the active and inactive calls. No cut-off for these calls is given here.

As to `CC[C@H](C)[C@H](NC(=O)[C@H](CCCCN)NC(=O)[C@H](CCC(N)=O)NC(=O)[C@@H](NC(=O)[C@@H](NC(=O)[C@H](CCCCN)NC(=O)[C@H](CCCCN)NC(=O)[C@H](CC(C)C)NC(=O)[C@H](Cc1ccccc1)NC(=O)[C@@H]1CCCN1C(=O)[C@H](C)N)C(C)C)[C@@H](C)CC)C(=O)N[C@@H](CC(C)C)C(=O)N[C@@H](CC(=O)O)C(=O)N[C@@H](CO)C(=O)NCC(=O)N[C@@H](CC(N)=O)C(=O)N[C@@H](CCCCN)C(=O)N[C@@H](CCCCN)C(=O)N[C@@H](CC(N)=O)C(=O)O`, the MBC in the assay on Streptococcus pyogenes is 9.5 µM (≈ 20.3 µg/mL); in the assay with Streptococcus pyogenes (Streptococcus pyogenes, AP1, 1 h, read-out: MBC), 5.7 µM (≈ 12.2 µg/mL); in the assay with Escherichia coli, 9.5 µM (≈ 20.3 µg/mL); in the assay with Escherichia coli (Escherichia coli, 37.4, 1 h, read-out: MBC) it was 5.6 µM (≈ 12 µg/mL).

Regarding `CC[C@H](C)[C@H](NC(=O)[C@H](CCCCN)NC(=O)[C@H](CCC(N)=O)NC(=O)[C@@H](NC(=O)[C@@H](NC(=O)[C@H](CCCCN)NC(=O)[C@H](CCCCN)NC(=O)[C@H](CC(C)C)NC(=O)[C@H](Cc1ccccc1)NC(=O)[C@@H]1CCCN1C(=O)[C@@H](C)N)C(C)C)[C@@H](C)CC)C(=O)N[C@@H](CC(C)C)C(=O)N[C@@H](CC(=O)O)C(=O)N[C@@H](CO)C(=O)NCC(=O)N[C@@H](CC(N)=O)C(=O)N[C@@H](CCCCN)C(=O)N[C@@H](CCCCN)C(=O)N[C@@H](CC(N)=O)C(=O)O`, in the assay on Lipid bilayer [1], the Activity amounted to 70%. In addition, in the assay on Lipid bilayer [2], the outcome was Active.

The record behind these values is ChEMBL document CHEMBL1275438, “The human CXC chemokine granulocyte chemotactic protein 2 (GCP-2)/CXCL6 possesses membrane-disrupting properties and is antibacterial” (2008).
